{"source": "patent US10272130B1", "about": "“Oral anaerobic glutathione supplement in liposome suspension” (priority 2017, dated 2019)", "origin": "cited, not measured here", "key": {"[1]": {"conditions": "in vivo"}}, "data": [{"smiles": "CC(=O)N[C@@H](CS)C(=O)O", "note": "[NAC, N-acetylcysteine]", "values": [{"measurement": "pregnancy risk category", "setting": "in vivo", "result": "category B"}, {"measurement": "adverse effects associated with administration", "setting": "orally administered or inhaled", "result": "drowsiness, stomatitis, clamminess, rhinorrhea, and hemoptysis"}, {"measurement": "half-life", "setting": "[1]", "result": "approximately 5.6 hours"}, {"measurement": "renally excreted by the body", "setting": "[1]", "result": 30, "unit": "%"}]}]}
